According to US20140171319A1, “Aqueous Composition Comprising a Pesticide and a Base Selected from an Alkali Salt of Hydrogencarbonate” (BASF SE, priority 2011, published 2014):

Legend:
[1] = Volatility: loss of dicamba from aqueous tank mix on petri dish; format: physicochemical; conditions: 70° C., 24 h, atmospheric pressure
Experimental: The volatility was determined by analyzing the loss of material by HLPL at 70° C. after 24 h at atmospheric pressure. A sample of the aqueous tank mix (300 l/ha) was placed on the petri dish with a defined area (corresponding to a desired field application rate, such as 500 g/ha pesticide).
The application rate was 500 g/ha dicamba (free acid), 1000 g/ha potassium glyphosate, 300 g/ha Genamin® T050 (“Ad2”, 300 g/ha Preference® (“Ad3”) and optionally 250, 500 or 1000 g/ha K2CO3. Deionised water (hardness <1° dH) was used to prepare the samples. Dicamba BAPMA refers to the bis(3-aminopropyl)methylamine salt of dicamba.

[2] = pH of tank mix; format: physicochemical
Experimental: The liquid aqueous composition may have a pH value of at least pH 4.0, preferably of at least 6.0, better of at least 7.0, more preferably of at least 7.5, especially preferred of at least 8.0 and in particular of at least 8.5. The liquid aqueous composition may have a pH of up to 13.0, preferably of up to 11.0 and in particular of up to 9.0. The pH value is usually determined at 20° C.

| SMILES | Loss of dicamba, Loss (wt %) ([1]; 500 g/ha dicamba (free acid), 1000 g/ha potassium glyphosate where Gly-K, deionised water) | pH of tank mix ([2]; Example 7 tank mix, 500 g/ha dicamba (free acid), deionised water (hardness <1° dH)) | Loss of dicamba, Loss (wt %) ([1]; application rate 500 g/ha dicamba, tank mix 300 l/ha) | pH of tank mix ([2]; Example 6 tank mix, application rate 500 g/ha dicamba, 300 l/ha) |
| --- | --- | --- | --- | --- |
| CN(CCCN)CCCN.COc1c(Cl)ccc(Cl)c1C(=O)O [Dicamba BAPMA, bis(3-aminopropyl)methylamine salt of dicamba] | <1 | 6.3 | – | – |
| COc1c(Cl)ccc(Cl)c1C(=O)O [Dicamba free acid, dicamba] | – | – | 80 | 3.0 |
